According to patent US20250270648A1, “MOLECULAR SIGNATURE FOR ASSESSING THE RESPONSIVENESS OF CANCER TO MITOCHONDRIA-TARGETED ANTIOXIDANTS” (UNIVERSITÉ CATHOLIQUE DE LOUVAIN, priority 2021, published 2025):

Experiments:
Assay type in all cases: cell-based, human
[1] = system: MCF10A normal breast epithelial cells; assay: Seahorse oximetry, oxygen consumption rates (OCRs); conditions: MitoQ 100 nM, 48 h
Method: (§1) Oxygen consumption rates (OCRs) were determined on a Seahorse XF96 bioenergetic analyzer using the XF cell Mito stress kit (Agilent Technologies®), according to manufacturer's recommendations. Briefly, MDA-MB-231 (10^4 cells/well), SkBr3 (10^4 cells/well), MDA-MB-436 (10^4 cells/well) or MCF10A (10^5 cells/well) were plated on XF96 culture plates 16 h before experiments in DMEM containing 10% FBS, and treated ±MitoQ for 48 h. On the day of analysis, culture media were replaced by DMEM containing 10 mM glucose, 2 mM glutamine, 1.85 g/L NaCl, 3 mg/L phenol red, pH 7.4. Cells were incubated for 1 h in a CO2-free incubator before analysis. Sequentially, basal OCR was acquired without treatment; ATP-linked OCR after the addition of 1 μM of ATP synthase inhibitor oligomycin; maximal OCR after mitochondrial potential disruption using 1 μM of ionophore carbonyl cyanide-4-(trifluoromethoxy) phenylhydrazone (FCCP); and non-mitochondrial OCR after the addition of 0.5 μM of Complex I inhibitor rotenone together with 0.5 μM of Complex III inhibitor antimycin A. All data were normalized by total protein content (Bio-Rad® Protein Assay; catalogue #5000006) measured right after oximetry. Mitochondrial OCRs (mtOCRs) were calculated by subtracting non-mitochondrial OCRs to the corresponding basal, maximal and ATP-linked OCRs.

[2] = system: MDA-MB-436 breast cancer cells; assay: Seahorse oximetry, oxygen consumption rates (OCRs); conditions: MitoQ 100 nM, 48 h
Method: as §1

MDA-MB-231 cells [3] = assay: Clonogenic assay, adherent; conditions: MitoQ 100 nM, 48 h
Method: (§2) For adherent assays, MDA-MB-231 and SKBR3 cells were pre-treated for 48 h±MitoQ, and seeded (1,000 to 2,000 cells/well) in 6-well plates. After colony formation (2 weeks), cells were fixed and stained with 0.5% crystal violet in a 10% ethanol solution, for 30 min. Colonies were washed with water and counted. Results are expressed as surviving fraction (SF), where […].

SkBr3 cells [4] = assay: Clonogenic assay, adherent; conditions: MitoQ 100 nM, 48 h
Method: as §2

MDA-MB-231 cells [5] = assay: Clonogenic assay on soft agar; conditions: MitoQ 250 nM
Method: (§3) For soft agar colony formation assays, 0.4% Seaplaque soft agar (Lonza®) was diluted with DMEM containing 10% FBS and was covered by a second 0.3% soft agar layer in which 500 MDA-MB-231 or SKBR3 cells were embedded. Complete DMEM Culture media ±MitoQ was added with 2× the final concentration. After 20 days, colonies were counted using an Axiovert™ 40 CFL microscope equipped with a MRC camera.

SkBr3 cells [6] = assay: Clonogenic assay on soft agar; conditions: MitoQ 250 nM
Method: as §3

[7] = system: MDA-MB-231 and SkBr3 cells; assay: RNA sequencing, transcripts common to both cell lines; conditions: MitoQ 500 nM, 48 h
Method: MDA-MB-231 and SkBr3 cancer cells were treated ±MitoQ for 48 h. Total mRNA was then extracted using the NucleoSpin RNA kit (Macherey-Nagel®), including DNAse treatment in the intermediary steps. mRNAs were quantified using the Qubit BR dsRNA assay kit (Thermo Fisher Scientific®), and mRNA integrity was evaluated on the Agilent 2100 Bioanalyzer using the RNA 6000 nano kit (Agilent®). All samples had RNA integrity number values ≥7.5. Libraries from control and treated samples were prepared starting from 150 ng of total mRNA using the KAPA RNA HyperPrep Kit with RiboErase (HMR) kit (KAPA Biosystems®) following the manufacturer's recommendations (KR1351—v1.16). Libraries were equimolarly pooled and sequenced on a single lane of an Illumina® NovaSeq 6000 platform. All libraries were sequenced at a depth of >50 million paired-end reads (2×100 bp reads) per sample. All sequencing data were analyzed using the Automated Reproducible MOdular workflow for preprocessing and differential analysis of RNAseq data (ARMOR) pipeline. In this pipeline, reads underwent a quality check using FastQC. Quantification and quality control results were summarized in a MultiQC report before being mapped using Salmon to the transcriptome index that was built using all Ensembl cDNA sequences obtained in the Homo_sapiens.GRCh38.cdna.all.fa file. Then, estimated transcript abundances from Salmon were imported into R using the tximeta package, and analyzed for differential gene expression with edgeR. To get a robust signature, only genes with |log 2 Fold Change|>1 and P<0.01 were retained.
While EMT and sternness markers are usual suspects when testing antimetastatic strategies, it was decided to go deeper in the understanding of the molecular effects of MitoQ, and performed unbiased RNA sequencing (RNAseq) using cells treated for 48 h±MitoQ (500 nM). […] On independent samples upon the same conditions (including |log 2 Fold Change|>1 and P<0.01), RT-qPCR on the two cell lines validated all genes as potential biomarkers of human breast cancer cell response to MitoQ, to the exception of EID1, PEG10, FTH1 and NUPR1 (FIG. 12A-M and Table 7).

MDA-MB-231 cells [8] = assay: Cell numbers, chemotherapy ±MitoQ, crystal violet; conditions: increasing doses of chemotherapy ±100 nM MitoQ; 24-72 h
Method: (§4) To test the effects of combination treatments on cell numbers, MDA-MB-231 or SkBr3 cancer cells were plated in 96-well plates and treated with increasing concentrations of chemotherapeutic drug ±MitoQ for 24 h (epirubicin), 48 h (doxorubicin, 5-FU, cisplatin, paclitaxel) or 72 h (gemcitabine). Cells were then fixed in 11% glutaraldehyde and stained with crystal violet. The dye retained by the cells was solubilized in 10% acetic acid, and the optical density (570 nm) was measured using a SpectraMax i3 spectrophotometer equipped with a MiniMax™ imaging cytometer.

SkBr3 cells [9] = assay: Cell numbers, chemotherapy ±MitoQ, crystal violet; conditions: increasing doses of chemotherapy ±100 nM MitoQ; 24-72 h
Method: as §4

[10] = |log 2 fold change|>1 and P<0.01

COC1=C(OC)C(=O)C(CCCCCCCCCC[P+](c2ccccc2)(c2ccccc2)c2ccccc2)=C(C)C1=O [MitoQ]
OCRs [1]: reduced | basal, maximal and ATP-linked OCRs [2]: repressed | clonogenicity in Petri dishes allowing adhesion (MDA-MB-231 cells [3]): largely inhibited | clonogenicity in Petri dishes allowing adhesion (SkBr3 cells [4]): largely inhibited | clonogenicity in suspension on soft agar (MDA-MB-231 cells [5]): completely abrogated | clonogenicity in suspension on soft agar (SkBr3 cells [6]): completely abrogated | EID1 and PEG10 gene transcripts ([7]; RNAseq, both cell lines): downregulated | PHGDH-1, SLC7A11, SERPINE1, FTH1, TXNRD1, PSAT1, PCK2, G6PD, ASNS, SLC6A9 and NUPR1 gene transcripts ([7]; RNAseq, both cell lines): upregulated | number of commonly induced transcripts [7, 10]: 11 | number of commonly repressed transcripts [7, 10]: 2 | cytostatic/cytotoxic effects of doxorubicin, epirubicin, 5-fluorouracil (5-FU), cisplatin, paclitaxel and gemcitabine (MDA-MB-231 cells [8]): did not alter | cytostatic/cytotoxic effects of doxorubicin, epirubicin, 5-fluorouracil (5-FU), cisplatin, paclitaxel and gemcitabine (SkBr3 cells [9]): did not alter
